{"source": "patent US20050075398A1", "about": "“Neuroprotectin D1 protects against cellular apoptosis, stroke damage, alzheimer's disease and retinal diseases” (priority 2003, published 2005)", "key": {"[1]": {"test_system": "Bcl-2 protein", "experiment": "Western analysis of Bcl-2 in HN cells", "assay_type": "cell-based, human", "conditions": "50 nM, p<0.05", "procedure": "Western Analysis. Total protein was extracted, and 25 μg of protein was analyzed by Western blots using human Bcl-2, Bfl-1 (A1) and actin antibodies. […] Human specific anti-Bfl-1(A1)[Cat. No. sc-8351] was obtained from Santa Cruz Biotechnology (Santa Cruz, Calif.). For Western analysis, signal-intensity data were gathered by phosphorimaging onto molecular imaging screens (FUJIFILM) for 3-36 h using a Typhoon Molecular Imager system (Amersham Biosciences) as described in Bazan and Lukiw, 2002.\nTo confirm the above changes in Bcl-2 and Bfl-1(A1), Western analysis was performed using anti-Bcl-2, anti-Bfl-1(A1), and anti-actin primary antibodies (B3170 Sigma Life Science, sc-8351 Santa Cruz, and A2103 Sigma, respectively). The results of the Western analysis confirm up-regulation of Bcl-2 and Bfl-1(A1) anti-apoptotic proteins over actin controls in DHA- and NPD1-treated cells."}, "[2]": {"test_system": "Bcl-2 gene expression", "experiment": "HGU133 GeneChip DNA array in HN cells: Bcl-2", "assay_type": "cell-based, human", "conditions": "Aβ42 25 μM, DHA 50 nM or NPD1 50 nM, 18 h, nsc = no significant change"}, "[3]": {"test_system": "polymorphonuclear leukocyte infiltration (myeloperoxidase activity)", "experiment": "Myeloperoxidase (MPO) activity assay in hippocampus and neocortex after MCA-O and reperfusion", "assay_type": "in vivo, mouse", "conditions": "0.4 μg over 48 h cerebroventricular perfusion; 1 h MCA-O, 48 h reperfusion", "procedure": "Middle Cerebral Artery Occlusion (MCA-O) and reperfusion. Experimental protocols were reviewed and approved by the Institutional Animal Care and Use Committee of Louisiana State University Health Sciences Center, New Orleans. Mice (20-25 g body wt) were induced with 2% isoflurane in a mixture of 70% nitrous oxide and 30% oxygen. Anesthesia was maintained with 1% isoflurane. Temperature was maintained at 36.5-37.5° C. using a Harvard homeothermic blanket. P 10 polyethylene catheters were placed in the femoral artery and vein, and the blood pressure was monitored. Arterial blood was analyzed for PO2, PCO2, and pH after 1 h of ischemia and 30 min after the onset of reperfusion. The common carotid and external carotid arteries were temporarily ligated with a retracting suture, and the external carotid artery was dissected just proximal to its bifurcation. The occluding filament was introduced from the external carotid artery and advanced to the internal carotid artery. The AVM micro clip was removed. The filament was advanced so that the blunted tip lay in the anterior cerebral artery and the side of the filament occluded the origin of the middle cerebral artery (MCA). The stump of the external carotid artery was ligated, and tension on the retracting suture to the common carotid artery was gently released, restoring blood flow to the carotid system.\nOcclusion of the middle cerebral artery (MCA-O) was maintained for 1 h; reperfusion was then established by delicate retrieval of the occluding suture from the arterial lumen, restoring blood flow to the region of the MCA. The mice were then killed, and the hippocampus and brain cortex rapidly dissected and frozen. Samples were kept at −80° C. until analysis. In some experiments, aspirin (7.5 mg/kg) was administered by gavage 15 min before MCA-O.\nPolymorphonuclear leukocyte infiltration measurement by the myeloperoxidase (MPO) assay. Inhibition of leukocyte infiltration by 10,17S-docosatriene (NPD1) or docosahexaenoic acid (DHA) was measured in mouse hippocampus and neocortex after 1 h of middle cerebral artery occlusion (MCA-O) and 48 h of reperfusion. Lipids were delivered for each experiment by perfusion (250 nl/h) through Alzet minipumps implanted into the third ventricle. Hippocampus and neocortex from the ipsilateral (MCA-O-reperfusion) and contralateral sides were rapidly dissected. Brain samples were assayed for myeloperoxidase activity as described in Huang, J., Choudhri, T. F., Winfree, C. J., McTaggart, R. A., Kiss, S., Mocco, J., Kim, L. J., Protopsaltis, T. S., Zhang, Y., Pinsky, D. J., and Connolly Jr., E. S. (2000) Stroke 31, 3047-3053. Briefly, brain tissues were homogenized in 10 mM phosphate buffer (pH 7.4), then frozen and thawed with liquid N2 followed by sonication. Samples were precipitated at 10,000×g for 10 min, then aliquots of supernatants were added to 10 mM phosphate buffer (pH 6.0) and a substrate solution containing o-dianisidine (Sigma; St. Louis, Mo.) and 0.025% hydrogen peroxide, and finally incubated at 37° C. for 45 min. Spectrophotometric detection was obtained at 460 nm."}, "[4]": {"test_system": "human COX-2 promoter", "experiment": "IL-1β-induced human COX-2 promoter-luciferase assay in ARPE-19 cells", "assay_type": "cell-based", "conditions": "IL-1β 10 ng/ml 8 h, NPD1 0.05 to 100 nM, read-out: IC50, IL-1β induction of the COX-2 promoter", "procedure": "Transfection of ARPE-19 cells with human COX-2 (830 bp): ARPE-19 cells growing in 12-well plates were transfected with 5 μg human COX-2-luciferase construct (830 bp) by FuGENE-6 (obtained from Drs. S. Prescott and D. Dixon, Vanderbilt University, Nashville, Tenn.). Four hours later, the medium containing FuGENE-6 was removed, fresh DMEM-F12 (10% FBS) was added, and the cells further incubated 8 h at 37° C. Transfected cells were serum-starved for 4 h and challenged with IL-1β (10 ng/ml) for 8 h with or without NPD1. NPD1 was added at concentrations from 0.05 to 100 nm. Eight hours later, cell homogenates were made, protein concentrations were adjusted, and luciferase assays were performed using 20 μg equivalent protein in Monolight 2010 for 20 seconds with luciferin as substrate, as described below.\nLuciferase assay: The medium containing IL-1β and NPD1 was removed, and the cells were washed with 1 ml cold PBS. The cells were scraped and centrifuged 2500×g for 20 minutes at 4° C. The cell pellet was re-suspended in 500 μl of 2×luciferase assay buffer (ALL, 0.2 mM tricine, 2 mM DTT, 30 mM MgSO4 and 10 mM ATP). […] The relative light units were determined by using an ALL luminometer recording over a 20-second interval, as described in Bazan, N. G., Fletcher, B. S., Herschman, H. R. & Mukherjee, P. K. (1994) Proc. Natl. Acad. Sci. U.S.A. 91:5252-5256. […]"}}}
{"smiles": "CC/C=C\\C[C@H](O)\\C=C/C=C/C=C/[C@H](O)C/C=C\\C/C=C\\CCC(=O)O", "note": "[NPD1, 10,17S-docosatriene]", "values": [{"measurement": "Bcl-2 protein increase over controls, normalized with actin", "setting": "[1]", "value": 2.3, "unit": "fold"}, {"measurement": "Bcl-2 gene expression, fold change over untreated controls", "setting": "[2]", "value": "+3.3 fold"}, {"measurement": "inhibition of ipsilateral myeloperoxidase activity, cortex", "setting": "[3]", "value": 99, "unit": "%"}, {"measurement": "inhibition of ipsilateral myeloperoxidase activity, hippocampus", "setting": "[3]", "value": 80, "unit": "%"}, {"measurement": "IC50", "setting": "[4]", "value": "< 5", "unit": "nM"}]}
